The record followed here is the C3SDB collision cross section collection.

For data set [1] the following is noted: instrument: TW, calibrated with phosphatidylcholines (ESI+) and phosphatidylethanolamines (ESI-).
The conditions of data set [2]: instrument: DT, single field, calibrated with Agilent tune mix (Agilent).
For data set [3] the following is noted: instrument: DT, stepped-field.

In the case of `CCCCCCCCCCCCC=CC[C@@H](O)[C@H](CO)NC(=O)CCCCCCCCCCCCCCCCCCCCC` [Cer(d18:0/22:1)], in data set [1] ([M+H]+), the “collision cross section (N2)” value is reported as 271.9 Å².
As to `CCCCCCCCCCCCC=CC[C@@H](O)[C@H](CO)NC(=O)CC=CCCCCCCCCCCCCCC` [Cer(d18:1/18:1)], the results for the “collision cross section (N2)” value in data set [1] ([M+H]+) and in data set [1] ([M-H]-) were 257.6 Å² and 248.5 Å², respectively.
In the same order, the values of `CCCCCCCCCCCCC=CC[C@@H](O)[C@H](CO)NC(=O)CCCCCCCCCCCCCCCCCCC` [Cer(d18:1/20:0)] are 266.5 Å² and 255.8 Å².
Turning to `CCCCCCCCCCCCC=CC[C@@H](O)[C@H](CO)NC(=O)CCCCCCCCCCCCCCCCCCCCC` [Cer(d18:1/22:0)], the “collision cross section (N2)” value in data set [1] ([M+H]+) is given as 271.8 Å²; in data set [1] ([M-H]-), 262 Å².
In the same order, the values of `CCCCCCCCCCCCC=CC[C@@H](O)[C@H](CO)NC(=O)CCCCCCCCCCCCCCCCCCCCCCC` [Cer(d18:1/24:0)] are 279.1 Å² and 268 Å².
In the same order, the values of `CCCCCCCCCCCCC=CC[C@@H](O)[C@H](CO)NC(=O)CC=CCCCCCCCCCCCCCCCCCCCC` [Cer(d18:1/24:1)] are 276.8 Å² and 266.4 Å².
For the compound `CCCCCCCCCCCCCCCC(=O)O[C@@H](CO)COC(=O)CCCCCCCCCCC` [DG(14:0/14:0)], in data set [1] ([M+H-H2O]+), the “collision cross section (N2)” value was determined as 242.3 Å².
The same measure, in the same setting: with `CCCCCCCCCCCCCCCCCCCCCC(=O)O[C@@H](CO)COC(=O)CCCCCCCCCCCCC` [DG(18:0/18:0)] the figure was 270.5 Å²; with `CCCCC/C=C\C/C=C\C/C=C\CCCCC(=O)OC[C@H](CO)OC(=O)CCCCCCC/C=C\CCCCCCCC` [DG(18:2/18:2)], 255.9 Å²; with `CC/C=C\C/C=C\C/C=C\C/C=C\C/C=C\CCCCCC(=O)O[C@@H](CO)COC(=O)CCCC/C=C\C/C=C\C/C=C\CCCCC` [DG(20:4/20:4)], 262.6 Å².
Turning to `CCCCCCCCCCCCC=CC[C@@H](O)[C@H](CO[C@@H]1O[C@H](CO)[C@@H](O)C(O)C1O)NC(=O)CCCCCCCCCCCCCCCCC` (stereo partly specified) [GlcCer(36:1)], the “collision cross section (N2)” value in data set [2] ([M+HCOO]-) amounted to 283.3 Å²; in data set [2] ([M+H]+), 284.1 Å²; in data set [2] ([M+Na]+), 283.5 Å²; in data set [3] ([M+Na]+), 286.7 Å².
In the same order, the values of `CCCCCCCCCCCCC=CC[C@@H](O)[C@H](CO[C@@H]1O[C@H](CO)[C@@H](O)C(O)C1O)NC(=O)CCCCCCCCCCCCCCCCCCCCC` (stereo partly specified) [GlcCer(40:1)] are 294.5 Å², 295.1 Å², 296.5 Å² and 301.1 Å².
For `CCCCCCCCCCCCC=CC[C@@H](O)[C@H](CO[C@@H]1O[C@H](CO)[C@@H](O)C(O)C1O)NC(=O)CCCCCCCCCCCCCCCCCCCCCC` (stereo partly specified) [GlcCer(41:1)], the “collision cross section (N2)” value in data set [2] ([M+H]+) came to 298.5 Å²; in data set [3] ([M+Na]+) it was 302.5 Å².
For the compound `CCCCCCCCCCCCC=CC[C@@H](O)[C@H](CO[C@@H]1O[C@H](CO)[C@@H](O)C(O)C1O)NC(=O)CCCCCCCCCCCCCCCCCCCCCCC` (stereo partly specified) [GlcCer(42:1)], the “collision cross section (N2)” value is reported as 299.4 Å² in data set [2] ([M+HCOO]-), 301.5 Å² in data set [2] ([M+H]+), 302.8 Å² in data set [2] ([M+Na]+) and 307.5 Å² in data set [3] ([M+Na]+).
Turning to `CCCCCCCCCCCCC=CC[C@@H](O)[C@H](CO[C@@H]1O[C@H](CO)[C@@H](O)C(O)C1O)NC(=O)CCCCCCCCCCCCCCCCC` (stereo partly specified) [GlcCer(d18:1/18:0)], the “collision cross section (N2)” value in data set [1] ([M+H]+) came to 282.6 Å²; in data set [1] ([M+Na]+) it was 282.2 Å².
`CCCCCCCCCCCCC=CC[C@@H](O)[C@H](CO[C@@H]1O[C@H](CO)[C@@H](O)C(O)C1O)NC(=O)CCCCCCCCCCCCCCCCCCC` (stereo partly specified) [GlcCer(d18:1/20:0)]: the “collision cross section (N2)” value in data set [1] ([M+H]+) came to 287.8 Å².
In the case of `CCCCCCCCCCCCC=CC[C@@H](O)[C@H](CO[C@@H]1O[C@H](CO)[C@@H](O)C(O)C1O)NC(=O)CCCCCCCCCCCCCCCCCCCCC` (stereo partly specified) [GlcCer(d18:1/22:0)], the results for the “collision cross section (N2)” value in data set [1] ([M+H]+) and in data set [1] ([M+Na]+) were 293.2 Å² and 294.3 Å², respectively.
In the same order, the values of `CCCCCCCCCCCCC=CC[C@@H](O)[C@H](CO[C@@H]1O[C@H](CO)[C@@H](O)C(O)C1O)NC(=O)CC=CCCCCCCCCCCCCCCCCCC` (stereo partly specified) [GlcCer(d18:1/22:1)] are 293.1 Å² and 290.1 Å².
In the same order, the values of `CCCCCCCCCCCCC=CC[C@@H](O)[C@H](CO[C@@H]1O[C@H](CO)[C@@H](O)C(O)C1O)NC(=O)CCCCCCCCCCCCCCCCCCCCCCC` (stereo partly specified) [GlcCer(d18:1/24:0)] are 299.7 Å² and 299.1 Å².
On the same counts, the results for `CCCCCCCCCCCCC=CC[C@@H](O)[C@H](CO[C@@H]1O[C@H](CO)[C@@H](O)C(O)C1O)NC(=O)CC=CCCCCCCCCCCCCCCCCCCCCCC` (stereo partly specified) [GlcCer(d18:1/26:1)] are 304.5 Å² and 304.7 Å².
As to `CCCCCCCCCCCCCC(=O)OC[C@@H](O)COP(=O)([O-])OCC[N+](C)(C)C` [LPC(14:0)], the “collision cross section (N2)” value is recorded as 227 Å² in data set [2] ([M+HCOO]-) and 220.8 Å² in data set [1] ([M+H]+).
As for `CCCCCCCCCCCCCCCC(=O)O[C@H](CO)COP(=O)(O)OCCN` [LPE(16:0)], the “collision cross section (N2)” value in data set [2] ([M+H]+) is given as 213.7 Å²; in data set [2] ([M+Na]+), 219.9 Å²; in data set [2] ([M-H]-), 207.1 Å²; in data set [1] ([M+H]+), 213.4 Å²; in data set [1] ([M+Na]+), 218.8 Å²; in data set [1] ([M-H]-), 206 Å².
Consider `CCCCCCCCCCCCCCCC/C=C\OC[C@@H](O)COP(=O)([O-])OCC[NH3+]` [LPE(p18:0)], for which the “collision cross section (N2)” value in data set [1] ([M+H]+) came out at 222.5 Å²; in data set [1] ([M+Na]+), 222 Å²; in data set [1] ([M-H]-), 211.4 Å².
On to `CCCCCCC/C=C\CCCCCCCC(=O)OC[C@H](COP(=O)([O-])OCC[N+](C)(C)C)OC(=O)CCCCCCC/C=C\CCCCCCCC` [PC(35:2)], for which the entries for the “collision cross section (N2)” value in data set [2] ([M+H]+) and in data set [3] ([M+K]+) were 286.4 Å² and 297.7 Å², respectively.
Take `CCCCCCCCCCCCCCCCCCC(=O)O[C@H](COC(=O)CCCCCCCCCCCCCCCC)COP(=O)([O-])OCC[N+](C)(C)C` [PC(36:0)]: in data set [1] ([M+H]+), the “collision cross section (N2)” value is 292.5 Å².
On the same count and under the same terms, with `CC/C=C\C/C=C\C/C=C\C/C=C\C/C=C\C/C=C\CCC(=O)OC[C@H](COP(=O)(O)OCCN)OC(=O)CCC/C=C\C/C=C\C/C=C\C/C=C\C/C=C\CC` [PE(42:11)] the figure was 280.2 Å².
`CCCCC/C=C\C/C=C\C/C=C\C/C=C\CCCC(=O)O[C@H](CO/C=C\CCCCCCCCCCCCCCCCCC)COP(=O)(O)OCCN` [PE(p40:4)]: the “collision cross section (N2)” value in data set [1] ([M+H]+) was determined as 286.9 Å²; in data set [1] ([M+Na]+), 290.1 Å²; in data set [1] ([M-H]-), 276.1 Å².
Take `CC/C=C\C/C=C\C/C=C\C/C=C\C/C=C\CCCC(=O)OC[C@H](COP(=O)(O)OC[C@@H](O)CO)OC(=O)CCCCCCCCC/C=C\C/C=C\CCCCC` [PG(40:7)]: the “collision cross section (N2)” value in data set [1] ([M+Na]+) was 288.3 Å².
For `CCCCC/C=C\C/C=C\C/C=C\CCCCCCC(=O)O[C@H](COC(=O)CCCC/C=C\C/C=C\C/C=C\CCCCC)COP(=O)(O)O[C@H]1C(O)C(O)C(O)[C@@H](O)C1O` (stereo partly specified) [PI(38:6)], the “collision cross section (N2)” value in data set [1] ([M+Na]+) was 292.4 Å².
On to `CCCCCCCC/C=C\CCCCCCCC(=O)OC[C@H](COP(=O)(O)O[C@H]1C(O)C(O)C(O)[C@@H](OP(=O)(O)O)C1O)OC(=O)CCCCCCC/C=C\CCCCCCCC` (stereo partly specified) [PIP(36:2)], for which the “collision cross section (N2)” value in data set [1] ([M+H-H2O]+) came to 295.5 Å².
As for `CCCCC/C=C\C/C=C\C/C=C\CCCCCCC(=O)OC[C@H](COP(=O)(O)OC[C@H](N)C(=O)O)OC(=O)CCCCCCC/C=C\C/C=C\CCCCC` [PS(38:5)], in data set [1] ([M-H]-), the “collision cross section (N2)” value was found to be 279 Å².
Take `CCCCCCCCCCCCC=CC[C@@H](O)[C@H](COP(=O)([O-])OCC[N+](C)(C)C)NC(=O)CCCCCCCCCCCCCCCCCC` [SM(37:1)]: the “collision cross section (N2)” value in data set [2] ([M+H]+) turned out to be 290.8 Å²; in data set [3] ([M+Na]+), 294.8 Å².
In the same order, the values of `CCCCCCCCCCCCC=CC[C@@H](O)[C@H](COP(=O)([O-])OCC[N+](C)(C)C)NC(=O)CCCCCCCCCCCCCCCCCCCC` [SM(39:1)] are 297.4 Å² and 301.6 Å².
In the same order, the values of `CCCCCCCCCCCCC=CC[C@@H](O)[C@H](COP(=O)([O-])OCC[N+](C)(C)C)NC(=O)CC=CCC=CCCCCCCCCCCCCCCC` [SM(40:3)] are 294.6 Å² and 299.9 Å².
With `CCCCCCCCCCCCC=CC[C@@H](O)[C@H](COP(=O)([O-])OCC[N+](C)(C)C)NC(=O)CCCCCCCCCCCCCCCCCCC` [SM(d18:1/20:0)], in data set [1] ([M+H]+), the “collision cross section (N2)” value stood at 292.2 Å².
For the compound `CCCCCCCCCCCCC=CC[C@@H](O)[C@H](COP(=O)([O-])OCC[N+](C)(C)C)NC(=O)CCCCCCCCCCCCCCCCCCCCCCC` [SM(d18:1/24:0)], the “collision cross section (N2)” value in data set [1] ([M+H]+) is reported as 302.2 Å².
The same measure, in the same setting: the value for `CCCCCCCCCCCCC=CC[C@@H](O)[C@H](COP(=O)([O-])OCC[N+](C)(C)C)NC(=O)CC=CCCCCCCCCCCCCCCCCCCCC` [SM(d18:1/24:1)] was 300.7 Å².
